Columns and labels:
[1] = Catalytic AOP pretreatment of hybrid poplar with multi-ligand catalysts, then enzymatic hydrolysis (glucose conversion); set-up: species or system Populus nigra var. charkoviensis×caudina cv. NE-19; conditions: for Glucose (Glucose Conversions): hybrid poplar, 270 mM NaOH, 10% H2O2, 24 hrs 30° C.
Procedure: Enzymatic hydrolysis was performed on the solid poplar slurry at 50° C. in the same rotary shaker used for the extraction step. In preparation for hydrolysis, 20 μL of 72% (w/w) H2SO4 and 500 μL of 1 M sodium citrate buffer (pH 5) (prepared from sodium citrate and citric acid) were added to the solid poplar slurry to adjust the pH to 5 (optimum pH for the enzymes being used herein). Thereafter, 40 μL of 10 mM tetracycline (Sigma-Aldrich) stock solution was added to the solid poplar slurry to inhibit microbial growth. This step was followed by addition of a Cellic CTec2 and HTec2 (Novozymes A/S, Bagsværd, DK) enzyme cocktail at a loading of 30 mg protein/g glucan in the biomass prior to extraction and catalytic pretreatment, unless otherwise noted. The enzymatic reaction (50° C., 210 rpm, 72 hrs) was carried out at 5% solids concentration by adjusting the volume of the poplar slurry to 10 mL via the addition of deionized water.
Following enzymatic hydrolysis, the resulting solid and liquid phases were separated by centrifugation in same manner as in Example 2, to produce separated hydrolyzed solid and liquid phases. The amount of glucose and xylose released into the aqueous phase was quantified by High Performance Liquid Chromatography (HPLC) (Agilent 1260 Series equipped with an Aminex® HPX-87H column operating at 65° C., a mobile phase of 0.05 M H2SO4, and a flow rate of 0.6 mL per minute, and detection by refractive index). The yield of glucose and xylose released was defined as the amount of solubilized monosaccharide divided by the total sugar content of the poplar biomass prior to incubation and catalytic pretreatment as determined by chemical composition analysis.
Hybrid poplar (0.5 g) (same source as Example 2) was catalytically pretreated using 1 mM of a stock solution of multi-ligand copper complex, namely copper (II) 2,2′ bipyridine ethylenediamine (Cu(bpy)en) containing 40 mM copper sulphate pentahydrate, 40 mM bipyridine and 40 mM ethylenediamine in deionized water, together with 270 mM NaOH and 10% H2O2 loading (w/w) on biomass in a total 5 mL volume made with deionized water. Other components of the pretreatment catalyst include tetraacetylethylenediamine (TAED), ethylenediaminetetraacetic acid (EDTA), manganese sulfate, and magnesium sulfate. The catalytic pretreatment was allowed to proceed for approximately 24 hrs at 30° C.
Thereafter, the resulting poplar slurry was pH adjusted to 5 and hydrolyzed according to the process described in Example 3. Following enzymatic hydrolysis, the solid and liquid phases were separated by centrifugation as described in Example 3.

[2] = Catalytic AOP pretreatment of alkali-extracted switchgrass, then enzymatic hydrolysis (glucose yield); set-up: species or system Panicum virgatum; conditions: 24 hr AOP pretreatment of AESG, catalyst concentration per table
Procedure: Screening of various metal ligand complexes (hereinafter “catalysts”) was performed via catalytic alkaline oxidative pretreatment (AOP) pretreatment of alkali-extracted switchgrass (AESG). To prepare AESG, 80 grams of untreated switchgrass (Panicum virgatum, cv. Cave-In-Rock, hammer milled to pass a 5-mm screen, and stored at a moisture content of approximately 5%) was soaked in an aqueous solution of 5 g/L NaOH at 80° C. for 2 hrs. The weight-to-volume (w/v) solids loading of switchgrass during alkaline extraction was 10% (e.g., 10 g of biomass in 100 mL NaOH solution). […] The washed solids was recovered as AESG and air-dried for over 7 days.
[Al(III)(3,5-^tBu2-salophen)Cl] [3,5-^tBu2-salophen=N,N′-bis(3,5-di-tert-butylsalicylidene)-1,2-phenylenediamine], [Zn(II)(BPPA)Cl]Cl [BPPA=N,N-bis(6-pivaloylamido-2-pyridylmethyl)-N-(2-pyridylmethyl)amine], and [NEt4][Fe(III)(bpb)Cl2]
To study the effect of catalytic AOP pretreatment on AESG, pretreatment was performed in a 100 g/L aqueous suspension of AESG in the presence of each catalyst. […] After 24 hrs of incubation at 30° C. without mixing, the pretreated switchgrass slurry was washed using deionized water to remove the alkaline phosphate buffer.
The enzymatic digestibility of AOP-pretreated switchgrass was estimated by the yield of glucose during the enzymatic hydrolysis of AOP pretreated AESG. The percentage yield was calculated on the basis of the glucan content in AESG prior to catalytic AOP pretreatment.
For enzymatic hydrolysis, 500 μL of 1 M Na-citrate buffer (pH 5) and 40 μL of 10 mM tetracycline (Sigma-Aldrich) were added to AOP-AESG that was not dried after catalytic AOP pretreatment. Accellerase 1500 (42 FPU/mL; Danisco-Genencor, Palo Alto, Calif.) was added at 50 mg protein per gram of glucan in AESG. The total volume of the mixture (solid and liquid) was adjusted with deionized water to reach a 5% (w/v) solids concentration, and the samples were incubated at 50° C. during hydrolysis.

[3] = catalyst concentration not given

## NCCN.[Cu+2].c1ccc(-c2ccccn2)nc1 [Cu(bpy)en, copper (II) 2,2′ bipyridine ethylenediamine]
[1]; catalyst 1 mM
  Glucose (Glucose Conversions): 55.00
[1]; catalyst 2 mM
  Glucose (Glucose Conversions): 48.15
[1]; in words
  Glucose yields compared to other catalyst systems: higher glucose yields compared to other catalyst systems tested

## O=S(=O)([O-])[O-].[Cu+2] [CuSO4, copper sulfate]
[1]; [3]
  Glucose (Glucose Conversions): 40.62

## Fc1c(F)c(F)c(-c2c3nc(c(-c4c(F)c(F)c(F)c(F)c4F)c4ccc([nH]4)c(-c4c(F)c(F)c(F)c(F)c4F)c4nc(c(-c5c(F)c(F)c(F)c(F)c5F)c5ccc2[nH]5)C=C4)C=C3)c(F)c1F.[Fe+3] [Fe(III)-tetrakis-pentafluorophenyl)-porphyrin]
[2]; pH 3, 24 hrs hydrolysis
  Glucose yield of enzymatic hydrolysis (% of theoretical maximum): 29.18 ± 0.33 % of theoretical maximum
[2]; pH 3, 72 hrs hydrolysis
  Glucose yield of enzymatic hydrolysis (% of theoretical maximum): 35.38 ± 0.43 % of theoretical maximum
[2]; pH 11, 24 hrs hydrolysis
  Glucose yield of enzymatic hydrolysis (% of theoretical maximum): 35.37 ± 0.45 % of theoretical maximum
[2]; pH 11, 72 hrs hydrolysis
  Glucose yield of enzymatic hydrolysis (% of theoretical maximum): 40.25 ± 0.19 % of theoretical maximum

## C1=Cc2nc1c(-c1ccccc1)c1ccc([nH]1)c(-c1ccccc1)c1nc(c(-c3ccccc3)c3ccc([nH]3)c2-c2ccccc2)C=C1.[Fe+3] [Fe(III)-tetraphenylporphyrin]
[2]; pH 3, 24 hrs hydrolysis
  Glucose yield of enzymatic hydrolysis (% of theoretical maximum): 31.55 ± 1.6 % of theoretical maximum
[2]; pH 3, 72 hrs hydrolysis
  Glucose yield of enzymatic hydrolysis (% of theoretical maximum): 42.13 ± 1.89 % of theoretical maximum
[2]; pH 11, 24 hrs hydrolysis
  Glucose yield of enzymatic hydrolysis (% of theoretical maximum): 36.98 ± 1.3 % of theoretical maximum
[2]; pH 11, 72 hrs hydrolysis
  Glucose yield of enzymatic hydrolysis (% of theoretical maximum): 42.14 ± 0.63 % of theoretical maximum

## O=S(=O)([O-])[O-].[Mg+2] [MgSO4, magnesium sulfate]
[1]; [3]
  Glucose (Glucose Conversions): 25.17

## CC(C)(C)c1cc(C=Nc2ccccc2N=Cc2cc(C(C)(C)C)cc(C(C)(C)C)c2[O-])c([O-])c(C(C)(C)C)c1.[Al+3].[Cl-] [[Al(III)(3,5-^tBu2-salophen)Cl]]
[2]; pH 10, 24 hrs hydrolysis
  Glucose yield of enzymatic hydrolysis (% of theoretical maximum): 28.90 ± 0.17 % of theoretical maximum
[2]; pH 11, 24 hrs hydrolysis
  Glucose yield of enzymatic hydrolysis (% of theoretical maximum): 29.80 ± 0.25 % of theoretical maximum
[2]; pH 13, 24 hrs hydrolysis
  Glucose yield of enzymatic hydrolysis (% of theoretical maximum): 34.19 ± 0.41 % of theoretical maximum

## CC[N+](CC)(CC)CC.O=C([N-]c1ccccc1[N-]C(=O)c1ccccn1)c1ccccn1.[Cl-].[Cl-].[Fe+3] [[NEt4][Fe(III)(bpb)Cl2]]
[2]; pH 9, 24 hrs hydrolysis
  Glucose yield of enzymatic hydrolysis (% of theoretical maximum): 27.07 ± 0.6 % of theoretical maximum
[2]; pH 9, 72 hrs hydrolysis
  Glucose yield of enzymatic hydrolysis (% of theoretical maximum): 34.27 ± 0.21 % of theoretical maximum
[2]; pH 10, 24 hrs hydrolysis
  Glucose yield of enzymatic hydrolysis (% of theoretical maximum): 25.54 ± 0.21 % of theoretical maximum
[2]; pH 10, 72 hrs hydrolysis
  Glucose yield of enzymatic hydrolysis (% of theoretical maximum): 31.97 ± 0.13 % of theoretical maximum
[2]; pH 11, 24 hrs hydrolysis
  Glucose yield of enzymatic hydrolysis (% of theoretical maximum): 27.44 ± 1.54 % of theoretical maximum
[2]; pH 11, 72 hrs hydrolysis
  Glucose yield of enzymatic hydrolysis (% of theoretical maximum): 31.54 ± 0.23 % of theoretical maximum

## CC(C)(C)C(=O)Nc1cccc(CN(Cc2ccccn2)Cc2cccc(NC(=O)C(C)(C)C)n2)n1.[Cl-].[Cl-].[Zn+2] [[Zn^II(BPPA)Cl]Cl, [Zn(II)(BPPA)Cl]Cl]
[2]; pH 10, 24 hrs hydrolysis
  Glucose yield of enzymatic hydrolysis (% of theoretical maximum): 26.43 ± 0.31 % of theoretical maximum
[2]; pH 11, 24 hrs hydrolysis
  Glucose yield of enzymatic hydrolysis (% of theoretical maximum): 27.33 ± 0.62 % of theoretical maximum
[2]; pH 13, 24 hrs hydrolysis
  Glucose yield of enzymatic hydrolysis (% of theoretical maximum): 33.36 ± 0.3 % of theoretical maximum

## Fe(III)-phthalocyanine
[2]; pH 3, 24 hrs hydrolysis
  Glucose yield of enzymatic hydrolysis (% of theoretical maximum): 30.91 ± 0.24 % of theoretical maximum
[2]; pH 3, 72 hrs hydrolysis
  Glucose yield of enzymatic hydrolysis (% of theoretical maximum): 36.80 ± 2.84 % of theoretical maximum
[2]; pH 11, 24 hrs hydrolysis
  Glucose yield of enzymatic hydrolysis (% of theoretical maximum): 34.21 ± 0.23 % of theoretical maximum
[2]; pH 11, 72 hrs hydrolysis
  Glucose yield of enzymatic hydrolysis (% of theoretical maximum): 38.75 ± 1.52 % of theoretical maximum
